{"source": "patent US4871774A", "about": "“Medical treatment” (The Boots Company PLC, priority 1987, dated 1989)", "key": {"plasma dopamine level": {"tested_on": "plasma dopamine level", "test": "Dopamine level in the plasma of human subjects", "type": "in vivo", "conditions": "for Dopamine levels: human plasma, 2 h after administration", "source_text": "The mean value of domamine in picograms/ml is set out below at days 1, 4 and 7. Eight human subjects who were given placebo tablets provides plasma samples from which the mean control dopamine levels given below were obtained."}, "[1]": {"tested_on": "brain DOPAC (turnover of dopamine)", "test": "Turnover of dopamine in rodent brains by determination of DOPAC concentrations (mouse)", "type": "in vivo, mouse (CD1)", "conditions": "whole brain, 10 mg/kg oral, 2 h", "source_text": "(7) Measurement of the turnover of dopamine in rodent brains by determination of DOPAC concentrations following drug administration\nInhibition of dopamine reuptake in the brain reduces the rate at which dopamine is synthesised and metabolised (the turnover rate). This can be assessed by measuring the amount of the dopamine metabolite DOPAC (dihydroxyphenylacetic acid) which accumulates in the brains of rats and mice. In addition, the administration of probenecid blocks active transport of DOPAC out of the brain. The subsequent rise in brain DOPAC concentrations is attenuated by drugs which inhibit dopamine reuptake.\nOne group of animals was killed two hours later. […] Aliquots (50 μl) of the clear supernatants were then injected automatically into the chromatographic system for the separation and quantification of DOPAC.\nHigh pressure liquid chromatography (HPLC) combined with electrochemical detection (ECD) was employed to assay DOPAC. […] The controller was set at 20 nA full-scale and output from the cell recorded using a Spectra-Physics 4100 automatic computing integrator. Quantification of DOPAC was effected by the computing integrator after calibration of the HPLC-ECD system using DOPAC of known concentration and including isoprenaline as an internal standard. […]"}, "[2]": {"tested_on": "dopamine reuptake; depletion of brain dopamine", "test": "In vivo inhibition of dopamine reuptake (prevention of α-methyl-m-tyrosine-induced depletion of brain dopamine)", "set-up": "species or system rat (Sprague-Dawley)", "conditions": "oral, three doses", "quoted_text": "An in vivo test for dopamine reuptake inhibition relies on the fact that such reuptake inhibitors can prevent the entry of dopamine-depleting agents into neurons. Depleting agents interfere with the neuronal storage mechanism for dopamine so dopamine leaks into the cytoplasm where it is metabolised by monoamine oxidase. Depleting agents therefore induce a large reduction in brain dopamine levels which can be measured experimentally. Prior treatment with a dopamine reuptake inhibitor reduces the depletion of dopamine levels caused by subsequent administration of a depleting agent such as α-methyl-m-tyrosine.\nMale Sprague-Dawley rats (180-220 g: Charles River) were randomly assigned to various treatment groups. […] Thirty minutes later, one vehicle treated group and all the test groups were given an i.p. injection (2 ml/kg) of the depleting agent α-methyl-m-tyrosine (25 mg/kg; Sigma Chemical Co.). […]\nBrain samples were thawed and homogenised in 4 volumes of 0.4M perchloric acid containing sodium metabisulphite (0.4 mM) and the internal standard 3,4-dihydroxybenzylamine (0.8 μM). […] Supernatants were removed and their dopamine concentration determined using an HPLC (high pressure liquid chromatography) system with fluorimetric detection.\nThe percentage prevention (P) of depletion of brain dopamine levels by test compounds is calculated from the formula [formula] […]"}}}
{"smiles": "CC(C)CC(N(C)C)C1(c2ccc(Cl)cc2)CCC1.Cl.O", "note": "(stereo not shown) [N,N-dimethyl-1-[1-(4-chlorophenyl)cyclobutyl]-3-methylbutylamine hydrochloride monohydrate]", "values": [{"measurement": "Dopamine levels", "setting": "plasma dopamine level; Day 1, 30 mg per day, control 122", "value": 254, "unit": "pg/mL"}, {"measurement": "Dopamine levels", "setting": "plasma dopamine level; Day 4, 30 mg per day, control 110", "value": 294, "unit": "pg/mL"}, {"measurement": "Dopamine levels", "setting": "plasma dopamine level; Day 7, 30 mg per day, control 118", "value": 219, "unit": "pg/mL"}, {"measurement": "plasma dopamine levels (in words)", "setting": "plasma dopamine level; human subjects, 30 mg dose", "value": "plasma dopamine levels had increased"}, {"measurement": "Brain DOPAC Levels", "setting": "[1]; A (drug alone), control 74 ± 5", "value": "54 ± 3", "unit": "ng/g wet wt"}, {"measurement": "Brain DOPAC Levels", "setting": "[1]; B (with probenecid 200 mg/kg i.p.), control 116 ± 8", "value": "54 ± 3", "unit": "ng/g wet wt"}, {"measurement": "prevention of brain dopamine depletion (in words)", "setting": "[2]", "value": "dose-dependent prevention of brain dopamine depletion"}]}
